Assay results taken from publication PMC11969996, “Minimalistic bis-triarylpyridinium cations: effective antimicrobials against bacterial and fungal pathogens” (RSC Medicinal Chemistry, 2025).
Values after ≈ are worked out from the molar mass of the structure shown. Where two headings read alike, the source gives them in different places.

Legend:
E. faecalis = assay: MIC by broth microdilution (EUCAST); format: cell-based, Enterococcus faecalis; conditions: E. faecalis ATCC 29212, MHB, overnight 37 °C, read-out: Minimum inhibitory concentration (MIC90) E. faecalis
Method: (§1) The Gram-negative bacterial strain E. coli CECT 101 and P. aeruginosa ATCC 27853 were supplied by The Colección Española de Cultivos Tipo (CECT, Valencia, Spain) and the American Type Culture Collection (ATCC, Rockville, MD, USA). The Gram-positive bacterial strain S. aureus ATCC 25923, E. faecalis ATCC 29212 and the fungal strain C. albicans ATCC 1023 were supplied by The American Type Culture Collection (ATCC, Maryland, USA). Bacterial and yeast growth was carried out aerobically overnight at 35 °C in Mueller Hinton agar and Sabouraud dextrose agar, respectively (Scharlau, Spain).
(§2) The MIC of the compounds 1a–d, 2a–d, and 3a–d was determined by a broth microdilution method according to the EUCAST protocol. Briefly, 0.5 McFarland bacterial and fungal suspensions were prepared in Müeller Hinton broth (MHB) and Sabouraud dextrose broth (SDB) media, respectively. In a 96-well plate, serial dilutions of compounds 1a–d, 2a–d, 3a–d starting from 512 to 0 μg mL^−1 were made in MHB and SDB media, respectively. After incubation overnight at 37 °C, results were evaluated according to turbidity. Bacterial growth was determined by measuring absorbance at a wavelength of 600 nm and at 520 nm for fungi.[53–55]

red blood cells = assay: Lysis (hemolysis) assay; format: cell-based; conditions: human erythrocytes, 1 hour, 37 °C, 1% DMSO
Method: The hemolysis test was performed following literature procedures.[14] Preparation of the erythrocyte suspension: human blood (6 mL) was transferred to a Falcon tube. The sample was then centrifuged at 10 000 rpm for 10 minutes. After centrifugation, the supernatant was discarded, and the cells were resuspended in 4 mL of 10 mM PBS. This centrifugation and resuspension process was repeated twice to remove plasma residues. Finally, the resulting cell suspension was diluted at a 1 : 20 ratio with 10 mM PBS. Hemolysis assay: a total of 500 μL of the prepared erythrocyte suspension was aliquoted into Eppendorf tubes according to the experimental conditions. The final DMSO concentration in each condition was adjusted to 1%. A 1% Triton™ X-100 solution was used as the positive control (100% hemolysis), while the negative control consisted of erythrocytes suspended in PBS with 1% DMSO (0% hemolysis). Samples were incubated at 37 °C with shaking at 200 rpm for 1 hour. Following incubation, the samples were centrifuged at 10 000 rpm for 10 minutes. Subsequently, 200 μL of the supernatant was collected and transferred to a 96-well plate. Absorbance was measured at 520 nm using a plate reader.

C. albicans [1] = assay: MIC by broth microdilution (EUCAST); format: cell-based, Candida albicans; conditions: overnight 37 °C, read-out: Minimum inhibitory concentration (MIC90) C. albicans
Method: as §1, §2

E. coli [2] = assay: MIC by broth microdilution (EUCAST); format: cell-based; conditions: Escherichia coli, CECT101; E. coli CECT 101, MHB, overnight 37 °C; read-out: Minimum inhibitory concentration (MIC90) E. coli
Method: as §1, §2

P. aeruginosa = assay: MIC by broth microdilution (EUCAST); format: cell-based; conditions: Pseudomonas aeruginosa, ATCC27853; P. aeruginosa ATCC 27853, MHB, overnight 37 °C; read-out: Minimum inhibitory concentration (MIC90) P. aeruginosa
Method: as §1, §2

S. aureus [3] = assay: MIC by broth microdilution (EUCAST); format: cell-based; conditions: Staphylococcus aureus, ATCC25923; S. aureus ATCC 25923, MHB, overnight 37 °C; read-out: Minimum inhibitory concentration (MIC90) S. aureus
Method: as §1, §2

C. albicans [4] = conditions: cited from earlier work
S. aureus [5] = conditions: cited from earlier work
E. coli [6] = conditions: cited from earlier work
C. albicans [7] = assay: Mitochondrial membrane depolarization, DiOC6(3) staining, flow cytometry; format: cell-based, Candida albicans; conditions: 3.5 hours
Method: Cultures of C. albicans were incubated with the fluorescent probe DiOC6(3), which typically accumulates in mitochondria due to the high membrane potential when the organelle works properly. Flow cytometry was used to measure the fluorescence intensity of the accumulated dye, establishing a baseline control (see “control” in Fig. 4).
To evaluate mitochondrial function in C. albicans by DiOC6 staining, the yeast cells were initially cultivated overnight in Sabouraud broth. The cultures were then transferred to a fresh medium, adjusting the OD600 to 0.1. […] The cultures were incubated for 3.5 hours with orbital shaking at 37 °C. After this period, the OD of each culture was standardized to 0.06 using the corresponding spent medium. Cells were subsequently stained with 0.3 μM DiOC6 for 20 minutes. Assays were performed in triplicate. Analysis was conducted using a BD Accuri™ C6 flow cytometer.

[8] = Enterococcus faecalis, ATCC29212
[9] = Candida albicans, ATCC1023, C. albicans ATCC 1023, SDB

CCCCCCCCCCCC[n+]1c(-c2ccc(Br)cc2)cc(-c2ccccc2)cc1-c1ccc(Br)cc1 [2c]
MIC90 (E. faecalis; [8]): 11 µM
Lysis20 (red blood cells): 26 µM
MIC90 (C. albicans [1]; [9]): 178 µM
MIC90 (E. coli [2]): 178 µM
MIC90 (P. aeruginosa): > 178 µM
MIC90 (S. aureus [3]): 22 µM

Brc1ccc(-c2cc(-c3ccccc3)[n+](CCCCCCCCCC[n+]3c(-c4ccccc4)cc(-c4ccc(Br)cc4)cc3-c3ccccc3)c(-c3ccccc3)c2)cc1 [1b]
MIC90 (E. faecalis; [8]): 1 µM
Lysis20 (red blood cells): 20 µM
MIC90 (C. albicans [1]; [9]): 118 µM
MIC90 (E. coli [2]): 7.6 µM
MIC90 (P. aeruginosa): 30 µM
MIC90 (S. aureus [3]): 7.6 µM

Cc1cc(N)c2ccccc2[n+]1CCCCCCCCCC[n+]1c(C)cc(N)c2ccccc21 [DQA, dequalinium chloride]
MIC (C. albicans [4]): 5.5 µM
MIC (S. aureus [5]): 2.4 µM
MIC (E. coli [6]): 121 µM

CCC[n+]1c(-c2ccccc2)cc(-c2ccc(Br)cc2)cc1-c1ccccc1 [3b]
MIC90 (E. faecalis; [8]): 124 µM
Lysis20 (red blood cells): >256 µM
MIC90 (C. albicans [1]; [9]): > 248 µM
MIC90 (E. coli [2]): > 496 µM
MIC90 (P. aeruginosa): > 248 µM
MIC90 (S. aureus [3]): 31 µM

CCCCCCCCN=c1ccn(CCCCCCCCCCn2ccc(=NCCCCCCCC)cc2)cc1 [OCT, octenidine]
MIC (C. albicans [4]): 2.93 µM (≈ 1.61 µg/mL)

CCC[n+]1c(-c2ccc(Br)cc2)cc(-c2ccccc2)cc1-c1ccc(Br)cc1 [3c]
MIC90 (E. faecalis; [8]): 54 µM
Lysis20 (red blood cells): >256 µM
MIC90 (C. albicans [1]; [9]): > 215 µM
MIC90 (E. coli [2]): > 430 µM
MIC90 (P. aeruginosa): > 215 µM
MIC90 (S. aureus [3]): 54 µM

CCCCCCCCCCCC[n+]1c(-c2ccccc2)cc(-c2ccc(Br)cc2)cc1-c1ccccc1 [2b]
MIC90 (E. faecalis; [8]): 24 µM
Lysis20 (red blood cells): 26 µM
MIC90 (E. coli [2]): 25 µM
MIC90 (P. aeruginosa): > 200 µM
MIC90 (S. aureus [3]): 12 µM

CCCCCCCCCCCC[n+]1c(-c2ccccc2)cc(-c2ccccc2)cc1-c1ccccc1 [2a]
MIC90 (E. faecalis; [8]): 3.6 µM
Lysis20 (red blood cells): 31 µM
MIC90 (C. albicans [1]; C. albicans ATCC 1023, SDB): 3.6 µM
MIC90 (C. albicans [1]; [9]): 2.2 to 6.2 µM
MIC90 (E. coli [2]): 28 µM
MIC90 (P. aeruginosa): > 112 µM
MIC90 (S. aureus [3]): 28 µM

COc1ccc2cc3[n+](cc2c1OC)CCc1cc2c(cc1-3)OCO2 [berberine]
MIC (C. albicans [4]): 24 µM

Brc1ccc(-c2cc(-c3ccc(Br)cc3)[n+](CCCCCCCCCC[n+]3c(-c4ccc(Br)cc4)cc(-c4ccc(Br)cc4)cc3-c3ccc(Br)cc3)c(-c3ccc(Br)cc3)c2)cc1 [1d]
MIC90 (E. faecalis): 6.0 µM
MIC90 (E. faecalis; [8]): 6 µM
Lysis20 (red blood cells): >256 µM
MIC90 (C. albicans [1]; C. albicans ATCC 1023, SDB): >91 µM
MIC90 (C. albicans [1]; [9]): > 91 µM
MIC90 (E. coli [2]): 46 µM
MIC90 (P. aeruginosa): > 91 µM
MIC90 (S. aureus [3]): 11 µM

CCC[n+]1c(-c2ccc(Br)cc2)cc(-c2ccc(Br)cc2)cc1-c1ccc(Br)cc1 [3d]
MIC90 (E. faecalis; [8]): 24 µM
Lysis20 (red blood cells): >256 µM
MIC (C. albicans [1]; [9]): > 90 µM
MIC90 (E. coli [2]): > 380 µM
MIC90 (P. aeruginosa): > 190 µM
MIC90 (S. aureus [3]): 48 µM

Brc1ccc(-c2cc(-c3ccccc3)cc(-c3ccc(Br)cc3)[n+]2CCCCCCCCCC[n+]2c(-c3ccc(Br)cc3)cc(-c3ccccc3)cc2-c2ccc(Br)cc2)cc1 [1c]
MIC90 (E. faecalis; [8]): 13 µM
Lysis20 (red blood cells): 27 µM
MIC90 (C. albicans [1]; [9]): > 103 µM
MIC90 (E. coli [2]): > 103 µM
MIC90 (P. aeruginosa): > 103 µM
MIC90 (S. aureus [3]): 13 µM

N#CC(C#N)=NNc1ccc(OC(F)(F)F)cc1 [FCCP, carbonyl cyanide-4-(trifluoromethoxy)phenylhydrazone, reference compound]
DiOC6(3) fluorescence intensity relative to control (C. albicans [7]; compound at 30 μM): approximately half

benzalkonium chloride [BAC]
MIC (S. aureus [5]): 4 µM
MIC (E. coli [6]): 63 µM

CCCCCCCCCCCC[n+]1c(-c2ccc(Br)cc2)cc(-c2ccc(Br)cc2)cc1-c1ccc(Br)cc1 [2d]
MIC90 (E. faecalis; [8]): 40 µM
Lysis20 (red blood cells): 42 µM
MIC90 (C. albicans [1]; [9]): > 160 µM
MIC90 (E. coli [2]): > 320 µM
MIC90 (P. aeruginosa): > 160 µM
MIC90 (S. aureus [3]): 40 µM

CCC[n+]1c(-c2ccccc2)cc(-c2ccccc2)cc1-c1ccccc1 [3a]
MIC90 (E. faecalis; [8]): > 293 µM
Lysis20 (red blood cells): >256 µM
DiOC6(3) fluorescence intensity relative to control (C. albicans [7]; compound at 6 μM): normal DiOC6(3) accumulation
MIC90 (C. albicans [1]; [9]): > 293 µM
MIC90 (E. coli [2]): > 585 µM
MIC90 (P. aeruginosa): > 293 µM
MIC90 (S. aureus [3]): 146 µM

c1ccc(-c2cc(-c3ccccc3)[n+](CCCCCCCCCC[n+]3c(-c4ccccc4)cc(-c4ccccc4)cc3-c3ccccc3)c(-c3ccccc3)c2)cc1 [1a]
MIC90 (E. faecalis; [8]): 1.1 µM
Lysis20 (red blood cells): 45 µM
DiOC6(3) fluorescence intensity relative to control (C. albicans [7]; compound at 6 μM): about one-tenth
MIC90 (C. albicans [1]; C. albicans ATCC 1023, SDB): 2.2 µM
MIC90 (C. albicans [1]; [9]): 2.2 to 6.2 µM
MIC90 (E. coli [2]): 4.4 µM
MIC90 (P. aeruginosa): 70 µM
MIC90 (S. aureus [3]): 4.4 µM
